Calls of active or inactive are those of the source. Cut-off read from the data, not from the text of the source, for most assays here: actives have a measured Kd and inactives only a lower limit.
Assays:
Wee1-like protein kinase = Wee1-like protein kinase (Homo sapiens, UniProt P30291)
[1] = target: Epithelial discoidin domain-containing receptor 1 (Homo sapiens, UniProt Q08345)
[2] = target: Chromodomain-helicase-DNA-binding protein 4 (Homo sapiens, UniProt Q14839)
[3] = target: Casein kinase I isoform alpha (Homo sapiens, UniProt P48729)
Sequence of Casein kinase I isoform alpha (P48729 whole entry, canonical isoform): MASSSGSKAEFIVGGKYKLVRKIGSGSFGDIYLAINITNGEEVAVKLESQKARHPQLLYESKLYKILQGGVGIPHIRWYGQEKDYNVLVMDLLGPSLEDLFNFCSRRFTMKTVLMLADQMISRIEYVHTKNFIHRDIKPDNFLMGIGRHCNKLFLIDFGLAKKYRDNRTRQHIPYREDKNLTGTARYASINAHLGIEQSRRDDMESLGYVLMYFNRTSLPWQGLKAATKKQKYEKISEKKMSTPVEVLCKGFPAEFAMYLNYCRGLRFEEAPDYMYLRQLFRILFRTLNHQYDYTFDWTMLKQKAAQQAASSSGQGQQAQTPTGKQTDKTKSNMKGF

[4] = target: Mitogen-activated protein kinase kinase kinase kinase 1 (Homo sapiens, UniProt Q92918)
Sequence of Mitogen-activated protein kinase kinase kinase kinase 1 (Q92918 whole entry): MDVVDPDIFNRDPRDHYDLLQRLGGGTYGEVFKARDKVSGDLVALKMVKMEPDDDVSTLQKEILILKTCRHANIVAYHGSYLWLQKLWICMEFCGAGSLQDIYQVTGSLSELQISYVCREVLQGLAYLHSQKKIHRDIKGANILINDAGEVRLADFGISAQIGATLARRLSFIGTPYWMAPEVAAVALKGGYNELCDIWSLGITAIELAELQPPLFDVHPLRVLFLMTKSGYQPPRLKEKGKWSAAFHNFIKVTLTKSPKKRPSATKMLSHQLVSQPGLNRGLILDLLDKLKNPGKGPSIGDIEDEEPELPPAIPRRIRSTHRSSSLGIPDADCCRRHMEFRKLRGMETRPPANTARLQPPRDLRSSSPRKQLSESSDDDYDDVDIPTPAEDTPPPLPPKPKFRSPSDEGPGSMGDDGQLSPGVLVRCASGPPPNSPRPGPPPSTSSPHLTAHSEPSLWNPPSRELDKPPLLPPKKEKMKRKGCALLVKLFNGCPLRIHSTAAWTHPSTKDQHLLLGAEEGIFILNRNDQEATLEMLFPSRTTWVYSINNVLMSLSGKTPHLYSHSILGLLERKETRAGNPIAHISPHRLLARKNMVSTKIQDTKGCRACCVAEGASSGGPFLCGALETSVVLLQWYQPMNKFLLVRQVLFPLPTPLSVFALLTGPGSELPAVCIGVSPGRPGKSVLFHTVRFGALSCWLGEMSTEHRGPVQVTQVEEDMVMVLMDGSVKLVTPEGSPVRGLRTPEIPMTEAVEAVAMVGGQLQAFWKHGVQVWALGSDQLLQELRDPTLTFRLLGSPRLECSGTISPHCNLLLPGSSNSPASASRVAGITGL

[5] = target: T1, Bone morphogenetic protein receptor type-2 (Homo sapiens, UniProt Q13873)
T1 sequence (Q13873 whole entry): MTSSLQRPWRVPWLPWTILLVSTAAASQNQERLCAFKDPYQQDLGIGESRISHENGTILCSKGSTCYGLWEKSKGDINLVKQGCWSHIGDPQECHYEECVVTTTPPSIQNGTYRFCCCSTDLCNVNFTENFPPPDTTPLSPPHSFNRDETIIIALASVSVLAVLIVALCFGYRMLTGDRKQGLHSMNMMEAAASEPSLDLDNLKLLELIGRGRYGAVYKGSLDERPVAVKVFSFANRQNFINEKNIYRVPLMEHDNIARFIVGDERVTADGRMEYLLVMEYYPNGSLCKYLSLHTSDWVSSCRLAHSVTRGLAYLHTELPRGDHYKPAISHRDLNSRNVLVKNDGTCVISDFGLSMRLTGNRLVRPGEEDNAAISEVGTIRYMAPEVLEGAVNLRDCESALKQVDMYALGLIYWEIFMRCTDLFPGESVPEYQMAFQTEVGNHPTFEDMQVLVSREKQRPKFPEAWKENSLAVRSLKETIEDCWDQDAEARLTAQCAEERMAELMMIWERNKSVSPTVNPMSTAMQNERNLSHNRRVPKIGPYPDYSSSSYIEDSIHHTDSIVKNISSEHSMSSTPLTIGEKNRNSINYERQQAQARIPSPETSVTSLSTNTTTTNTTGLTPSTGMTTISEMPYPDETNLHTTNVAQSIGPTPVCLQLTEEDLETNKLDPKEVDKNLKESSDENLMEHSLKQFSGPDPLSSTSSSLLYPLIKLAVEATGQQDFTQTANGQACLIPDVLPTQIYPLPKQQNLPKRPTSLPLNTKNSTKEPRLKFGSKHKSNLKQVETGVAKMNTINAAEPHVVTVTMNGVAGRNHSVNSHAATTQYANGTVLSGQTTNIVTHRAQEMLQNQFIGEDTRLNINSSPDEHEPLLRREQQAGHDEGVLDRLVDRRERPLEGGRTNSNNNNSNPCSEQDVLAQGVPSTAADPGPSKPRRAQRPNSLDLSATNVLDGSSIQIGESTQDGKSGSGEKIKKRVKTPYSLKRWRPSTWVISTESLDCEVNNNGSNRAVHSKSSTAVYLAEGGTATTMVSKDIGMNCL

[6] = target: DnaJ homolog subfamily A member 1 (Homo sapiens, UniProt P31689)
Sequence of DnaJ homolog subfamily A member 1 (P31689 whole entry): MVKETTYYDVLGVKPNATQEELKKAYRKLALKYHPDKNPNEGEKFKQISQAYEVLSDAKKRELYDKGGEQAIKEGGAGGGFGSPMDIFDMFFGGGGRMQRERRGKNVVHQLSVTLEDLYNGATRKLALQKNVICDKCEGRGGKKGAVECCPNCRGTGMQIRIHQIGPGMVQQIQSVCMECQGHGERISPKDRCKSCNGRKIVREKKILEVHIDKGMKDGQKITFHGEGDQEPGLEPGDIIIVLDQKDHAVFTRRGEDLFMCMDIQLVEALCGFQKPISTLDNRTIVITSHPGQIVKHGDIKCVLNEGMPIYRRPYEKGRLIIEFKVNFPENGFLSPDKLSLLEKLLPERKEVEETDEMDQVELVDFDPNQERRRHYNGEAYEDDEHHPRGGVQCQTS

[7] = target: T2, Adenine phosphoribosyltransferase (Homo sapiens, UniProt P07741)
T2 sequence (P07741 whole entry): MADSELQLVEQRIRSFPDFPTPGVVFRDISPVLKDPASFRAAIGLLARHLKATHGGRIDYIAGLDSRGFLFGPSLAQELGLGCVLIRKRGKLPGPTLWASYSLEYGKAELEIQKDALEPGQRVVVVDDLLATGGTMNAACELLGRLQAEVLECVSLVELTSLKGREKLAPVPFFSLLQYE

[8] = target: Mitogen-activated protein kinase kinase kinase 1 (Homo sapiens, UniProt Q13233)
[9] = target: Ribosomal protein S6 kinase alpha-3 (Homo sapiens, UniProt P51812)
Note: in the data inactive means no Kd found up to 30 µM.

Sequence of Wee1-like protein kinase (P30291 whole entry, the tested form may be a part): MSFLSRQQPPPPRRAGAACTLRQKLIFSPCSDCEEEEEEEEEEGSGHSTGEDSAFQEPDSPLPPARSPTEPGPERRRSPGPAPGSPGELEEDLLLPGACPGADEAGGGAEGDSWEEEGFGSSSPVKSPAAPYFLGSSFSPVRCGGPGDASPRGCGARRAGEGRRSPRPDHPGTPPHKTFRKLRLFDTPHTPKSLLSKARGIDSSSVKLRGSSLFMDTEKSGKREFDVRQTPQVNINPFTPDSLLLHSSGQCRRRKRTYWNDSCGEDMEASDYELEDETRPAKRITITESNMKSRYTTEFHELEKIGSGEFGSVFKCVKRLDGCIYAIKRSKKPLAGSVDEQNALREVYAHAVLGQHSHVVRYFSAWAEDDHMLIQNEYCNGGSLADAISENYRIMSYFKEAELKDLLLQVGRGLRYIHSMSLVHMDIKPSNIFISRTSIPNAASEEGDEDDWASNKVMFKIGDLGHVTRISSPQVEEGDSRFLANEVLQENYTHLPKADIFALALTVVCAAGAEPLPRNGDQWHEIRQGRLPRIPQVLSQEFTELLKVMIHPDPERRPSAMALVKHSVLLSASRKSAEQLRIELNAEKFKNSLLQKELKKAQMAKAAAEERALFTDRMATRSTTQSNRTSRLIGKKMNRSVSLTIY
Sequence of Epithelial discoidin domain-containing receptor 1 (Q08345 whole entry, the tested form may be a part): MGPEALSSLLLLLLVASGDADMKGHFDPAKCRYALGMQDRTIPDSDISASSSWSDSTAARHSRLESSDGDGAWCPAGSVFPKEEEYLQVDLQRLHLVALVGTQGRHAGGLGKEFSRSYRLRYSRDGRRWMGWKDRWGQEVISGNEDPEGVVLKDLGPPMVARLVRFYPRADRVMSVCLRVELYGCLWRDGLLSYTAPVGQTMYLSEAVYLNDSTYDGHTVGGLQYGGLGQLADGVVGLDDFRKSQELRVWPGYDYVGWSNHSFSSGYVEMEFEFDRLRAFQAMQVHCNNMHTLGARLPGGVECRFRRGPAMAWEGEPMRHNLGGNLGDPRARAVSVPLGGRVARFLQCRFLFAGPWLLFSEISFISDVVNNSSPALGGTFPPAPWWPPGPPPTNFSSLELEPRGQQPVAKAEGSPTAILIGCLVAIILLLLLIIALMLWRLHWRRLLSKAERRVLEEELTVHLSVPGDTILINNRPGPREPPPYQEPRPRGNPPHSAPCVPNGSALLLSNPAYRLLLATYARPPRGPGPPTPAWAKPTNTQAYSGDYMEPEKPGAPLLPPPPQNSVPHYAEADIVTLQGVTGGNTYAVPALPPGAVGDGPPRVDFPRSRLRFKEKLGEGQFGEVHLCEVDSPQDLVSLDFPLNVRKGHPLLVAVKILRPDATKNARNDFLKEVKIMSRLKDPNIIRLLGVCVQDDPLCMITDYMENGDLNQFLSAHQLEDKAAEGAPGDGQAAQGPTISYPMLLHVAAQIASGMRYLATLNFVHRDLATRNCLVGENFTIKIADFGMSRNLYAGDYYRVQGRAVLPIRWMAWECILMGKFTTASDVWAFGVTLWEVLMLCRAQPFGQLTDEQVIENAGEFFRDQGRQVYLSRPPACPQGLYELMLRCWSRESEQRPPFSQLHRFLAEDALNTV
Sequence of Chromodomain-helicase-DNA-binding protein 4 (Q14839 whole entry, canonical isoform): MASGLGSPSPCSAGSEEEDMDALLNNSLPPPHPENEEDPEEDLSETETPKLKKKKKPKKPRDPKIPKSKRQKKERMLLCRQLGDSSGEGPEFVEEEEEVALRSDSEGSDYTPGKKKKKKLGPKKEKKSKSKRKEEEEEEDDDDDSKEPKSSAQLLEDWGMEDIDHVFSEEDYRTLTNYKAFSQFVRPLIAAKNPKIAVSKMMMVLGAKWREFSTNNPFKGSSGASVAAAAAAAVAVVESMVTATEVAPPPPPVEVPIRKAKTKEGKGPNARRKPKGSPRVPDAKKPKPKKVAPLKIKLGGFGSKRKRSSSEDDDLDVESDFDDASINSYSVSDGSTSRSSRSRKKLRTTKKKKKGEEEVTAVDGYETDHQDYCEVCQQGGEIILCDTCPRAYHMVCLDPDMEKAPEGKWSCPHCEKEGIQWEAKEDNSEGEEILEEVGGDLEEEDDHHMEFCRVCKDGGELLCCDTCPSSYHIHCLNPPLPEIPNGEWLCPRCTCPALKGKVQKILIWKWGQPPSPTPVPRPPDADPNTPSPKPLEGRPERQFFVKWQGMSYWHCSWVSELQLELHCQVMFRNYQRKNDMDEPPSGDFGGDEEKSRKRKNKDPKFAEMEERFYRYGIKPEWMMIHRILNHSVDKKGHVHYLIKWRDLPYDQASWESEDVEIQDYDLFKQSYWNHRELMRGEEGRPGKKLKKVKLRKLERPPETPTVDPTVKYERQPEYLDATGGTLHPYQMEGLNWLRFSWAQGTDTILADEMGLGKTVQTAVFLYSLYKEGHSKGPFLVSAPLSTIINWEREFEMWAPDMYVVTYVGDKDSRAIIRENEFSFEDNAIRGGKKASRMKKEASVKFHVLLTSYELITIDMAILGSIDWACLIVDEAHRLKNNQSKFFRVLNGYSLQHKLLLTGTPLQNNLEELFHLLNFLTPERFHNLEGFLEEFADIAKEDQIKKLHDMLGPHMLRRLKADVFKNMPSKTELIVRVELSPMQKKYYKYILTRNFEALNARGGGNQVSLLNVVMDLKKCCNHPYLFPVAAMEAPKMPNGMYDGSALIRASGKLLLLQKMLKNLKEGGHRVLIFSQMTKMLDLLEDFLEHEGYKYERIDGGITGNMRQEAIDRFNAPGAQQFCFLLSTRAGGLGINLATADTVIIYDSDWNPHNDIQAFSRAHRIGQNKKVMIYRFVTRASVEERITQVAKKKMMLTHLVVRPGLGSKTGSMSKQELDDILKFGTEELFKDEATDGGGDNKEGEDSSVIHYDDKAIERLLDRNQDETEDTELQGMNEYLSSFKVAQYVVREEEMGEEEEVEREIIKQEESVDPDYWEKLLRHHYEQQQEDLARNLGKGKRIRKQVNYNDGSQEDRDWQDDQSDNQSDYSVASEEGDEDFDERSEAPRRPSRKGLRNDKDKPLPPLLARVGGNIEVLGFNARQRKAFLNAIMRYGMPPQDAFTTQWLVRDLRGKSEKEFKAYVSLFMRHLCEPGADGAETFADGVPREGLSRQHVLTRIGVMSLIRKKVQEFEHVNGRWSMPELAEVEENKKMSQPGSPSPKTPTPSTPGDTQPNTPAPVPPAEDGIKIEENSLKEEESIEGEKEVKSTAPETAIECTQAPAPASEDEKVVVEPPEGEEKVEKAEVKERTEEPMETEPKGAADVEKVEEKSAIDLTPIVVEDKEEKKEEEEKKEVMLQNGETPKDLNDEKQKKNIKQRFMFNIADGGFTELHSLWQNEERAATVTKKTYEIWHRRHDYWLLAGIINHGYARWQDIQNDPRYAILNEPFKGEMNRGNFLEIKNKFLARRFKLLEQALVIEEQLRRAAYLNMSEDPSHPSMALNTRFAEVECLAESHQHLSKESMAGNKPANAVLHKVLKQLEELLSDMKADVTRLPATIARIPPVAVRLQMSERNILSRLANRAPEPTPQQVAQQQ

| Structure (SMILES) | Kd (Wee1-like protein kinase) | Kd [1] | Kd [2] | Kd [3] | Kd [4] | Kd [5] | Kd [6] | Kd [7] | Kd [8] | Kd [9] |
| --- | --- | --- | --- | --- | --- | --- | --- | --- | --- | --- |
| CC(=O)c1cnc2ccc(-c3cc(Cl)c(O)c(Cl)c3)nc2c1N[C@H]1CC[C@H](CN(C)C)CC1 | > 30 µM (inactive) | 0.515 µM (active) | > 30 µM (inactive) | 0.931 µM (active) | > 30 µM (inactive) | > 30 µM (inactive) | > 30 µM (inactive) | > 30 µM (inactive) | > 30 µM (inactive) | – |
| Cc1nc2cc(-n3ncc(C(=O)c4cc5ccccc5[nH]4)c3N)ccc2[nH]1 [FGFR INHIBITOR DEBIO 1347] | > 30 µM (inactive) | > 30 µM (inactive) | > 30 µM (inactive) | > 30 µM (inactive) | > 30 µM (inactive) | > 30 µM (inactive) | > 30 µM (inactive) | > 30 µM (inactive) | > 30 µM (inactive) | > 30 µM (inactive) |
| COc1cc2ncnc(Oc3cccc(NC(=O)Nc4cc(C(C)(C)C(F)(F)F)on4)c3)c2cc1OC [CEP-32496] | > 30 µM (inactive) | 0.124 µM (active) | > 30 µM (inactive) | > 30 µM (inactive) | > 30 µM (inactive) | > 30 µM (inactive) | > 30 µM (inactive) | > 30 µM (inactive) | > 30 µM (inactive) | > 30 µM (inactive) |
| Cc1cc(C(=O)NOCCO)c(Nc2ccc(I)cc2F)n(C)c1=O [AZD-8330] | > 30 µM (inactive) | > 30 µM (inactive) | > 30 µM (inactive) | > 30 µM (inactive) | > 30 µM (inactive) | > 30 µM (inactive) | > 30 µM (inactive) | > 30 µM (inactive) | > 30 µM (inactive) | > 30 µM (inactive) |
| O=C1NC(=O)[C@@H](c2cn3c4c(cccc24)CCC3)[C@@H]1c1c[nH]c2ccccc12 [TIVANTINIB] | > 30 µM (inactive) | > 30 µM (inactive) | > 30 µM (inactive) | > 30 µM (inactive) | > 30 µM (inactive) | > 30 µM (inactive) | > 30 µM (inactive) | > 30 µM (inactive) | > 30 µM (inactive) | > 30 µM (inactive) |
| CO[C@H]1C[C@@H]2CC[C@@H](C)[C@@](O)(O2)C(=O)C(=O)N2CCCC[C@H]2C(=O)O[C@H]([C@H](C)C[C@@H]2CC[C@@H](OP(C)(C)=O)[C@H](OC)C2)CC(=O)[C@H](C)/C=C(\C)[C@@H](O)[C@@H](OC)C(=O)[C@H](C)C[C@H](C)/C=C/C=C/C=C/1C [RIDAFOROLIMUS] | > 30 µM (inactive) | > 30 µM (inactive) | > 30 µM (inactive) | > 30 µM (inactive) | > 30 µM (inactive) | > 30 µM (inactive) | > 30 µM (inactive) | > 30 µM (inactive) | > 30 µM (inactive) | > 30 µM (inactive) |
| COCC(=O)NC/C=C/c1ccc2ncnc(Nc3ccc(Oc4ccc(C)nc4)c(C)c3)c2c1 [CP-724714] | > 30 µM (inactive) | > 30 µM (inactive) | > 30 µM (inactive) | > 30 µM (inactive) | > 30 µM (inactive) | > 30 µM (inactive) | > 30 µM (inactive) | > 30 µM (inactive) | > 30 µM (inactive) | > 30 µM (inactive) |
| COc1ncc(-c2ccc3nccc(-c4ccnnc4)c3c2)cc1NS(=O)(=O)c1ccc(F)cc1F [OMIPALISIB] | > 30 µM (inactive) | > 30 µM (inactive) | > 30 µM (inactive) | > 30 µM (inactive) | > 30 µM (inactive) | > 30 µM (inactive) | > 30 µM (inactive) | > 30 µM (inactive) | > 30 µM (inactive) | > 30 µM (inactive) |
| C=CC(=O)N1CCC[C@H](n2c(=O)n(-c3ccc(Oc4ccccc4)cc3)c3c(N)ncnc32)C1 | > 30 µM (inactive) | > 30 µM (inactive) | – | > 30 µM (inactive) | > 30 µM (inactive) | > 30 µM (inactive) | > 30 µM (inactive) | > 30 µM (inactive) | > 30 µM (inactive) | > 30 µM (inactive) |
